Data: patent US10959979B2, “Small molecules against cancer” (Biokine Therapeutics Ltd., priority 2015, dated 2021)
Values after ≈ are worked out from the molar mass of the structure shown.

How the values were obtained:
MIP3a = MIP3a (Homo sapiens, UniProt P78556); assay: Migration of CD4+ T-cells toward MIP3a (Transwell migration assay); format: cell-based; settings: 50 μg/ml; BKT300 at 78% purity
Procedure: (§1) 600 μl of RPMI medium was added to the lower chambers of Transwell® transmigration plates, supplemented with 2 μg/ml of MIP3a, 100 ng/ml of SDF-1 or 10 ng/ml of MCP-1. The tested small molecule was added to the lower chambers at the indicated concentration, except in control samples. The MIP3a, SDF-1 or MCP-1 was incubated with the small molecule for 30 minutes at room temperature before the initiation of the migration assay. Following 30 minutes of incubation 2×10^5 immune cells were added to the upper chambers of the transmigration plates in a total volume of 100 μl. Cells which migrated within 3 hours to the bottom chamber of the Transwell® plates were counted using a FACScalibur™ flow cytometer.
To evaluate migration toward MIP3a, peripheral blood mononuclear cells (PBMCs) were isolated from heparinized venous blood by centrifugation over Ficoll Histopaque® 1077. CD4+ T cells were further isolated with RosetteSep™ human CD4+ T-cell Enrichment cocktail (StemCell Technologies Inc.), according to the manufacturer's instructions. CD4+ T cells were re-suspended in RPMI medium containing 1% fetal calf serum (FCS).

[1] = system: RPMI human multiple myeloma cells; assay: Cancer cell viability, FACS with propidium iodide staining; format: cell-based; settings: BKT300 at 78% purity; concentrations as low as 2 μg/ml (the lowest tested concentration)
Procedure: (§2) In order to assess the effect of compounds of Table 2 on cancer cell viability, the in vitro effect of the compounds on MV4-11 human acute myeloid leukemia cells was evaluated. The cancer cells were incubated in RPMI cell medium with 1% fetal calf serum (FCS) at a concentration of 2×10^5 cells/well at a final volume of 250 μl in 96-well plate. The compounds were added to the cells at the indicated concentrations. The cells were incubated for 24 hours and the number of dead and viable cells was then evaluated by fluorescence-activated cell sorting (FACS), using propidium iodide (PI) staining.
(§3) The in vitro effect of BKT300 (at 78% purity) on cancer cell viability was further evaluated using a variety of additional cancer cell lines, using procedures as described hereinabove with respect to MV4-11 cells.

[2] = system: H460 human large cell lung cancer cells; assay: as above; format: cell-based; settings: 10 μg/ml; BKT300 at 78% purity
Procedure: as §2, §3

[3] = system: Raji human lymphoma cells; assay: as above; format: cell-based; settings: BKT300 at 78% purity
Procedure: as §2, §3

[4] = system: Jurkat human acute lymphoblastic leukemia cells; assay: as above; format: cell-based; settings: BKT300 at 78% purity
Procedure: as §2, §3

[5] = system: Bjab human lymphoma cells; assay: as above; format: cell-based; settings: 8.5 μg/ml; BKT300 at 78% purity
Procedure: as §2, §3

[6] = system: H345 human small cell lung cancer cells; assay: as above; format: cell-based; settings: 8.5 μg/ml; BKT300 at 78% purity
Procedure: as §2, §3

MLCK (MLCK2) = target: T1, MLCK (MLCK2) (Homo sapiens, UniProt Q32MK0); assay: LanthaScreen europium kinase binding assay; settings: BKT300 at 78% purity
T1 sequence (Q32MK0 1-819): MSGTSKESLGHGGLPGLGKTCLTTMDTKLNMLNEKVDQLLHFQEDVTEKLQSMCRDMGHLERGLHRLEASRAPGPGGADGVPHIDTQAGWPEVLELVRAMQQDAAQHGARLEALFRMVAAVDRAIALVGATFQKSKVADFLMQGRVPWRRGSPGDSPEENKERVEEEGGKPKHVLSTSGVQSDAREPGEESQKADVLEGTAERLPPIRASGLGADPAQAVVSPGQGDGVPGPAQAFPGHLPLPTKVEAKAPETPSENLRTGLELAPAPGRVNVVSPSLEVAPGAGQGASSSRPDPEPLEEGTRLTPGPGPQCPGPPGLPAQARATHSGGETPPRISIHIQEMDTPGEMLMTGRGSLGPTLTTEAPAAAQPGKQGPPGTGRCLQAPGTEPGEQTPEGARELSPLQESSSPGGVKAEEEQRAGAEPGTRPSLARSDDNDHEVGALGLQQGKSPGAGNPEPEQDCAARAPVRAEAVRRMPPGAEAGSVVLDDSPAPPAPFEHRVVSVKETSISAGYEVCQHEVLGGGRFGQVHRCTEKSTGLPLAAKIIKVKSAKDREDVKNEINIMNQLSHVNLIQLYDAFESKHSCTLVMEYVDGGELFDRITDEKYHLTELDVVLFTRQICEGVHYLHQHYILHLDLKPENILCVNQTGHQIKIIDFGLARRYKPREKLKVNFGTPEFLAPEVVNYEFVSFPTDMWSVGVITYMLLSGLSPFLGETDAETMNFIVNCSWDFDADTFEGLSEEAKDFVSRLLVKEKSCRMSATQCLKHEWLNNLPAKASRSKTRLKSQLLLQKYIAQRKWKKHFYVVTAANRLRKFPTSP
Procedure: (§4) In order to further characterize the effect of BKT300 on cell signaling, kinase profiling of BKT300 (at 78% purity) was performed (by the Life Technologies SelectScreen® Biochemical Profiling Lab) using a LanthaScreen® europium kinase binding assay to screen 440 kinases.
(§5) The principle of the LanthaScreen® assay is depicted in FIG. 48. Binding of an Alexa Fluor® conjugate or “tracer” to a kinase is detected by addition of a europium (Eu)-labeled anti-tag antibody. Binding of the tracer and antibody to a kinase results in a high degree of FRET, whereas displacement of the tracer with a kinase inhibitor results in a loss of FRET. The kinase tracers are based on ATP-competitive kinase inhibitors, making them suitable for detection of any compounds that bind to the ATP site. Inhibitors that bind the ATP site include both Type I kinase inhibitors, which bind solely to the ATP site, and Type II inhibitors (e.g., imatinib, sorafenib, BIRB-796), which bind to both the ATP site and a second site often referred to as the allosteric site.

[7] = system: MV4-11 human acute myeloid leukemia cells; assay: Cancer cell viability, FACS with propidium iodide staining; format: cell-based
Procedure: as §2

MV4-11 (FLT3-ITD) cells = assay: AML cells in vivo: NSG mice transplanted with MV4-11 cells; set-up: species or system NOD scid gamma (NSG) mice; settings: BKT300 at 98% purity; 1 mg/Kg intraperitoneally for three consecutive days from day 21; day 25; anti human CD45
Procedure: The effect of BKT300 (at 98% purity) on the proliferation of AML cells in vivo was examined by treatment of NOD scid gamma (NSG) mice transplanted with MV4-11 (FLT3-ITD) cells.
The mice were subjected to irradiation with 300 rad and on the following day were transplanted by IV injection with MV4-11 (FLT3-ITD) cells, 10×10^6 cells/mouse. 21 days following transplantation, the treated group was injected intraperitoneally with 1 mg/Kg of BKT300 (98% purity) per injection for three consecutive days. On day 25 following transplantation, mice were sacrificed and the survival of the human AML blasts in the blood, spleen and the bone marrow was evaluated using anti human CD45.

440 kinases = assay: LanthaScreen europium kinase binding assay, screen of 440 kinases; set-up: species or system human
Procedure: as §4, §5

MCP-1 = MCP-1 (Homo sapiens, UniProt P13500); assay: Migration of THP-1 cells towards MCP-1 (Transwell migration assay); format: cell-based; settings: BKT300 at 78% purity
Procedure: as §1
To evaluate migration towards MCP-1, THP-1 cells were re-suspended in RPMI medium containing 1% fetal calf serum (FCS).

SDF-1 = SDF-1 (Homo sapiens, UniProt P48061); assay: Migration of Jurkat cells towards SDF-1 (Transwell migration assay); format: cell-based; settings: for Inhibition of migration of lymphocytic Jurkat cells towards SDF-1: 10 μg/ml
Procedure: as §1
To evaluate migration towards SDF-1, Jurkat cells were re-suspended in RPMI medium containing 1% fetal calf serum (FCS).

Chain of SDF-1 (P48061 22-93): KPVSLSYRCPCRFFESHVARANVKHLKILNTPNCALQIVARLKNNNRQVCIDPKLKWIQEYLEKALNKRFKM
Chain of MCP-1 (P13500 24-99): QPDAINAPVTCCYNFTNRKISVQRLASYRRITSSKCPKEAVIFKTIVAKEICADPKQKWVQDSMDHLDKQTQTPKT
Chain of MIP3a (P78556 27-96): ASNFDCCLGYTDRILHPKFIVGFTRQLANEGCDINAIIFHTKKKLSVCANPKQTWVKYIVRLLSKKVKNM

Inhibition of CD4+ T-cell migration towards MIP3a (MIP3a): completely inhibited
% Inhibition (MLCK (MLCK2)): 58%
Inhibition of 36 of the 440 screened kinases (440 kinases; BKT300 at 78% purity): more than 40%
Affinity of BKT300 to kinases, based on the kinase screening assay (440 kinases; estimated from Table 3): few tens
Inhibition of migration of monocytic THP-1 cells towards MCP-1 (MCP-1; 10 μg/ml): no apparent effect
Inhibition of migration of monocytic THP-1 cells towards MCP-1 (MCP-1; 50 μg/ml): strong inhibition
Inhibition of migration of lymphocytic Jurkat cells towards SDF-1 (SDF-1; BKT300 at 78% purity): significantly inhibited
Inhibition of migration of lymphocytic Jurkat cells towards SDF-1 (SDF-1; BKT300 at 98% purity): significantly inhibited
Selectivity of inhibition of SDF-1 function over MCP-1 and/or MIP3a function (SDF-1; at a concentration of about 10 μg/ml): relatively selective manner
SMILES: CCCCCc1cc2cc(O)cc(Oc3c(O)cc(O)cc3CCCCC)c2c(=O)o1 [BKT300]
Cell death of RPMI cells [1]: induced cell death
Cell death of H460 cells [2]: about 80%
Cell death of Raji cells ([3]; 4.25 μg/ml): slight cell death
Cell death of Raji cells ([3]; 8.5 μg/ml): about 30%
Cell death of Jurkat cells ([4]; concentrations as low as 2 μg/ml (the lowest tested concentration)): induced cell death
IC50 ([4]; Homo sapiens, Jurkat, read-out: IC50 for BKT300-induced death of Jurkat cells): 3.5 µg/mL (≈ 8.21 µM)
Cell death of Bjab cells [5]: about 30%
Cell death of H345 cells [6]: over 90%
Degree of cell death of MV4-11 cells, 98% purity compared with 78% purity ([7]; 4.25 μg/ml, BKT300 at 98% purity vs 78% purity): considerably greater degree of cell death
Cell death of MV4-11 cells ([7]; BKT300 at 78% purity, concentrations as low as 2 μg/ml (the lowest tested concentration), 24 hours): induced cell death
Induction of cell death of MV4-11 cells, 98% purity compared with 78% purity ([7]; BKT300 at 98% purity vs BKT300 at 78% purity): significantly more effective
IC50 ([7]; Homo sapiens, MV4-11, BKT300 at 78% purity, 24 hours, read-out: IC50 for induced death of MV4-11 cells): 2.72 µg/mL (≈ 6.38 µM)
Number and percentage of AML cells in the bone marrow of mice (MV4-11 (FLT3-ITD) cells): dramatically reduced
